Source: patent publication US20260297080A1, “BICYCLIC COMPOUNDS AS CDK INHIBITORS” (BeOne Medicines I GmbH, priority 2022, published 2026)

Experiments:
CDK2/Cyclin E1 = CDK2/Cyclin E1 (Homo sapiens, UniProt P24941); assay: CDK2/Cyclin E1 Biochemical Assay (TR-FRET), 0.060 mM ATP; conditions: 0.15 μM Rb (Ser780)-biotin substrate, pH7.0, 60 min preincubation, 120 min reaction, room temperature
Procedure, shortened: (§1)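 Enzyme + cpd (0–10 μM), 60 min RT; add ATP + 0.15 μM Rb(Ser780)-biotin, 120 min RT; 50 mM HEPES pH 7.0, 50 mM MgCl2, 1 mM DTT, 0.1 mM orthovanadate. Stop/detect with Eu anti-pRb + SA-XL665, 60 min; ratio 665/620 nm; IC50 by 4PL fit.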

CDK1/Cyclin B1 = CDK1/Cyclin B1 (Homo sapiens, UniProt P06493); assay: CDK1/Cyclin B1 Biochemical Assay (TR-FRET), 0.015 mM ATP; conditions: 0.15 μM Rb (Ser780)-biotin substrate, pH7.0, 60 min preincubation, 120 min reaction, room temperature
Sequence of CDK1/Cyclin B1 (P06493 whole entry): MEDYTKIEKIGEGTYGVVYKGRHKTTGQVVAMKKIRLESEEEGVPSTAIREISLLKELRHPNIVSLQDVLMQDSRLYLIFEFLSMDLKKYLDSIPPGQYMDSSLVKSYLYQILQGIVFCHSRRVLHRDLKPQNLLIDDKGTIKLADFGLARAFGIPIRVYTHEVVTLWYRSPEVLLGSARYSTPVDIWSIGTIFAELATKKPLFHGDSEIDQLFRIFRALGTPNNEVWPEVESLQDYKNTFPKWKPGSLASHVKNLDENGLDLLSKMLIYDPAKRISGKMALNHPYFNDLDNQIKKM
Sequence of CDK1/Cyclin B1 (P14635 whole entry partner): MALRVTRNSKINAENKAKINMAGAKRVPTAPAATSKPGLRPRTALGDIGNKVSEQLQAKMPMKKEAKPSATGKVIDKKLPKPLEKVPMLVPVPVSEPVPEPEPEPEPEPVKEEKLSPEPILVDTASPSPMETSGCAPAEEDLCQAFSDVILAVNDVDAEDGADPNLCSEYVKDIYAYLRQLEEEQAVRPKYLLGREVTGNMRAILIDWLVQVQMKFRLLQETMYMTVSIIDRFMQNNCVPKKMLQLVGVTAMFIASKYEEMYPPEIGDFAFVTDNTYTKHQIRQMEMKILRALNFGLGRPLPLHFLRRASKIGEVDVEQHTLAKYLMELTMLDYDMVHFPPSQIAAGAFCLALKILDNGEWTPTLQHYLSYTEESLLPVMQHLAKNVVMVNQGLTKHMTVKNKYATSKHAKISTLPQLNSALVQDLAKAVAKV
Procedure, shortened: as §1

Row | IC50 (CDK2/Cyclin E1) | IC50 (CDK1/Cyclin B1) | Compound
1 | 0.0016 µM | 0.07 µM | O=C(NC1CCC1)O[C@H]1CC[C@@H](c2cc(Nc3ccc4c(c3)CS(=O)(=O)N4)n[nH]2)C1 (single isomer, unassigned) [Example 380a, cis-3-(3-((2,2-dioxido-1,3-dihydrobenzo[c]isothiazol-5-yl)amino)-1H-pyrazol-5-yl)cyclopentyl cyclobutylcarbamate]
2 | 0.0009 µM | 0.023 µM | O=C(NC1CCC1)O[C@H]1CC[C@@H](c2cc(Nc3ccc4c(c3)CS(=O)(=O)N4)n[nH]2)C1 (single isomer, unassigned) [Example 380b, cis-3-(3-((2,2-dioxido-1,3-dihydrobenzo[c]isothiazol-5-yl)amino)-1H-pyrazol-5-yl)cyclopentyl cyclobutylcarbamate]
3 | 0.0012 µM | 0.045 µM | O=C(NC1CCCC1)O[C@H]1CC[C@@H](c2cc(Nc3ccc4c(c3)CS(=O)(=O)N4)n[nH]2)C1 (single isomer, unassigned) [Example 381a, cis-3-(3-((2,2-dioxido-1,3-dihydrobenzo[c]isothiazol-5-yl)amino)-1H-pyrazol-5-yl)cyclopentyl cyclopentylcarbamate]
4 | 0.0009 µM | 0.019 µM | O=C(NC1CCCC1)O[C@H]1CC[C@@H](c2cc(Nc3ccc4c(c3)CS(=O)(=O)N4)n[nH]2)C1 (single isomer, unassigned) [Example 381b, cis-3-(3-((2,2-dioxido-1,3-dihydrobenzo[c]isothiazol-5-yl)amino)-1H-pyrazol-5-yl)cyclopentyl cyclopentylcarbamate]
5 | 0.0017 µM | 0.045 µM | CC[C@H](C)NC(=O)O[C@@H]1CC[C@H](c2cc(Nc3ccc4c(c3F)CS(=O)(=O)N4)n[nH]2)C1 (single isomer, unassigned) [Example 383a]
6 | 0.0014 µM | 0.015 µM | CC[C@H](C)NC(=O)O[C@H]1CC[C@@H](c2cc(Nc3ccc4c(c3F)CS(=O)(=O)N4)n[nH]2)C1 (single isomer, unassigned) [Example 383b]
7 | 0.0008 µM | 0.022 µM | CC(C)NC(=O)O[C@H]1CC[C@@H](c2cc(Nc3ccc4c(c3)C(C)S(=O)(=O)N4)n[nH]2)C1 (single isomer, unassigned) [Example 384a, cis-3-(3-((3-methyl-2,2-dioxido-1,3-dihydrobenzo[c]isothiazol-5-yl)amino)-1H-pyrazol-5-yl)cyclopentyl isopropylcarbamate]
8 | 0.0039 µM | 0.191 µM | CC(C)NC(=O)O[C@H]1CC[C@@H](c2cc(Nc3ccc4c(c3)C(C)S(=O)(=O)N4)n[nH]2)C1 (single isomer, unassigned) [Example 384b, cis-3-(3-((3-methyl-2,2-dioxido-1,3-dihydrobenzo[c]isothiazol-5-yl)amino)-1H-pyrazol-5-yl)cyclopentyl isopropylcarbamate]
9 | 0.0012 µM | 0.014 µM | CC(C)NC(=O)O[C@H]1CC[C@@H](c2cc(Nc3ccc4c(c3)C(C)S(=O)(=O)N4)n[nH]2)C1 (single isomer, unassigned) [Example 384c, cis-3-(3-((3-methyl-2,2-dioxido-1,3-dihydrobenzo[c]isothiazol-5-yl)amino)-1H-pyrazol-5-yl)cyclopentyl isopropylcarbamate]
10 | 0.0018 µM | 0.057 µM | CC(C)NC(=O)O[C@H]1CC[C@@H](c2cc(Nc3ccc4c(c3)C(C)S(=O)(=O)N4)n[nH]2)C1 (single isomer, unassigned) [Example 384d, cis-3-(3-((3-methyl-2,2-dioxido-1,3-dihydrobenzo[c]isothiazol-5-yl)amino)-1H-pyrazol-5-yl)cyclopentyl isopropylcarbamate]
11 | 0.003 µM | 0.137 µM | CCCNC(=O)O[C@@H]1CC[C@H](c2cc(Nc3ccc4c(c3F)CS(=O)(=O)N4)n[nH]2)C1 (single isomer, unassigned) [Example 387a]
12 | 0.002 µM | 0.037 µM | CCCNC(=O)O[C@H]1CC[C@@H](c2cc(Nc3ccc4c(c3F)CS(=O)(=O)N4)n[nH]2)C1 (single isomer, unassigned) [Example 387b]
13 | 0.0012 µM | 0.036 µM | CC1(NC(=O)O[C@@H]2CC[C@H](c3cc(Nc4ccc5c(c4F)CS(=O)(=O)N5)n[nH]3)C2)CC1 (single isomer, unassigned) [Example 388a]
14 | 0.0013 µM | 0.021 µM | CC1(NC(=O)O[C@H]2CC[C@@H](c3cc(Nc4ccc5c(c4F)CS(=O)(=O)N5)n[nH]3)C2)CC1 (single isomer, unassigned) [Example 388b]
15 | 0.0016 µM | 0.191 µM | CC(C)(C)NC(=O)O[C@@H]1CC[C@H](c2cc(Nc3cc4c(cc3F)S(=O)(=O)NC4)n[nH]2)C1 (single isomer, unassigned) [Example 395a]
16 | 0.0013 µM | 0.114 µM | CC(C)(C)NC(=O)O[C@H]1CC[C@@H](c2cc(Nc3cc4c(cc3F)S(=O)(=O)NC4)n[nH]2)C1 (single isomer, unassigned) [Example 395b]
17 | 0.0062 µM | 0.264 µM | O=C(NC1CCC1)O[C@@H]1CC[C@H](c2cc(Nc3ccc4c(c3F)CS(=O)(=O)N4)n[nH]2)C1 (single isomer, unassigned) [Example 399a]
18 | 0.0038 µM | 0.09 µM | O=C(NC1CCC1)O[C@H]1CC[C@@H](c2cc(Nc3ccc4c(c3F)CS(=O)(=O)N4)n[nH]2)C1 (single isomer, unassigned) [Example 399b]

Row | IC50 (CDK2/Cyclin E1) | IC50 (CDK1/Cyclin B1) | Compound
19 | 0.0069 µM | 0.154 µM | O=C(NC1CCCC1)O[C@@H]1CC[C@H](c2cc(Nc3ccc4c(c3F)CS(=O)(=O)N4)n[nH]2)C1 (single isomer, unassigned) [Example 400a]
20 | 0.0034 µM | 0.064 µM | O=C(NC1CCCC1)O[C@H]1CC[C@@H](c2cc(Nc3ccc4c(c3F)CS(=O)(=O)N4)n[nH]2)C1 (single isomer, unassigned) [Example 400b]
21 | 0.002 µM | 0.298 µM | O=C(NCCC(F)(F)F)O[C@@H]1CC[C@H](c2cc(Nc3cc4c(cc3F)S(=O)(=O)NC4)n[nH]2)C1 (single isomer, unassigned) [Example 419a]
22 | 0.0018 µM | 0.078 µM | O=C(NCCC(F)(F)F)O[C@H]1CC[C@@H](c2cc(Nc3cc4c(cc3F)S(=O)(=O)NC4)n[nH]2)C1 (single isomer, unassigned) [Example 419b]
23 | 0.0026 µM | 0.048 µM | CC(C)NC(=O)O[C@@H]1CC[C@H](c2cc(Nc3ccc4c(c3)NS(=O)(=O)C4)n[nH]2)C1 (stereo in doubt) [Example 303a, cis-3-(3-((2,2-dioxido-1,3-dihydrobenzo[c]isothiazol-6-yl)amino)-1H-pyrazol-5-yl)cyclopentyl isopropylcarbamate]
24 | 0.002 µM | 0.028 µM | CC(C)NC(=O)O[C@H]1CC[C@@H](c2cc(Nc3ccc4c(c3)NS(=O)(=O)C4)n[nH]2)C1 (stereo in doubt) [Example 303b, cis-3-(3-((2,2-dioxido-1,3-dihydrobenzo[c]isothiazol-6-yl)amino)-1H-pyrazol-5-yl)cyclopentyl isopropylcarbamate]
25 | 0.0056 µM | 0.14 µM | CCCNC(=O)O[C@H]1C[C@@H](c2cc(Nc3cc4c(cc3F)S(=O)(=O)NC4)n[nH]2)C1 [Example 50, cis-3-(3-((6-fluoro-1,1-dioxido-2,3-dihydrobenzo[d]isothiazol-5-yl)amino)-1H-pyrazol-5-yl)cyclobutyl propylcarbamate]
26 | 0.035 µM | 0.375 µM | CC(C)NC(=O)OC1CC(c2cc(Nc3ccc4c(c3F)CNS4(=O)=O)n[nH]2)C1 (stereo not drawn) [Example 137, 3-(3-((4-fluoro-1,1-dioxido-2,3-dihydrobenzo[d]isothiazol-5-yl)amino)-1H-pyrazol-5-yl)cyclobutyl isopropylcarbamate]
27 | 0.0067 µM | 0.073 µM | CC(C)NC(=O)OC1CC(c2cc(Nc3ccc4c(c3)CNS4(=O)=O)n[nH]2)C1 (stereo not drawn) [Example 173, 3-(3-((1,1-dioxido-2,3-dihydrobenzo[d]isothiazol-5-yl)amino)-1H-pyrazol-5-yl)cyclobutyl isopropylcarbamate]
28 | 0.017 µM | 0.067 µM | CCCNC(=O)O[C@H]1CC[C@@H](c2cc(Nc3ccc4c(c3)CS(=O)(=O)N4)n[nH]2)C1 [Example 195b]
29 | 0.0033 µM | 0.096 µM | CCCNC(=O)O[C@@H]1CC[C@H](c2cc(Nc3ccc4c(c3F)CS(=O)(=O)N4CC(F)(F)F)n[nH]2)C1 [Example 266a]
30 | 0.0035 µM | 0.059 µM | CCCNC(=O)O[C@H]1CC[C@@H](c2cc(Nc3ccc4c(c3F)CS(=O)(=O)N4CC(F)(F)F)n[nH]2)C1 [Example 266b]
31 | 0.0007 µM | 0.017 µM | CN1c2ccc(Nc3cc([C@H]4CC[C@@H](OC(=O)NC(C)(C)C)C4)[nH]n3)cc2CS1(=O)=O [Example 391a]
32 | 0.0009 µM | 0.0078 µM | CN1c2ccc(Nc3cc([C@@H]4CC[C@H](OC(=O)NC(C)(C)C)C4)[nH]n3)cc2CS1(=O)=O [Example 391b]
33 | 0.103 µM | 2.02 µM | CC(C)NC(=O)O[C@H]1C[C@@H](c2cc(Nc3cc4c(cc3F)S(=O)(=O)NC4)n[nH]2)C1 [Example 397, (1s,3s)-3-(3-((6-fluoro-1,1-dioxido-2,3-dihydrobenzo[d]isothiazol-5-yl)amino)-1H-pyrazol-5-yl)cyclobutyl isopropylcarbamate]
34 | 0.001 µM | 0.01 µM | CC(C)(C)NC(=O)O[C@@H]1CC[C@H](c2cc(Nc3ccc4c(c3)CS(=O)(=O)N4)n[nH]2)C1 [Example 403a]
35 | 0.0011 µM | 0.0073 µM | CC(C)(C)NC(=O)O[C@H]1CC[C@@H](c2cc(Nc3ccc4c(c3)CS(=O)(=O)N4)n[nH]2)C1 [Example 403b]
36 | 0.018 µM | 0.717 µM | CC(C)(C)NC(=O)O[C@@H]1CC[C@H](c2cc(Nc3cc4c(cc3F)NS(=O)(=O)C4)n[nH]2)C1 [Example 404a]
